Measurements as given in patent US11505782B2 (priority 2018, dated 2022).
Where “and” joins values, the source holds several entries; their conditions need not be identical. Identical values can stand only once. Like-named read-outs stand apart in the source and are kept apart here.

Legend:
JAK1/JAK2 = type: cell-based, human
[1] = tested on: PC3 human prostate cancer cells; type: cell-based
complement C3 [2] = biological target: T1, complement C3 (Homo sapiens, UniProt P01024); type: cell-based; conditions: 72 h
complement C3 [3] = biological target: T1, complement C3; type: cell-based; conditions: 48 h
[4] = tested on: PC3 human prostate cancer cells; type: cell-based; remark: listed apart in the source

T1 sequence (P01024 672-1663): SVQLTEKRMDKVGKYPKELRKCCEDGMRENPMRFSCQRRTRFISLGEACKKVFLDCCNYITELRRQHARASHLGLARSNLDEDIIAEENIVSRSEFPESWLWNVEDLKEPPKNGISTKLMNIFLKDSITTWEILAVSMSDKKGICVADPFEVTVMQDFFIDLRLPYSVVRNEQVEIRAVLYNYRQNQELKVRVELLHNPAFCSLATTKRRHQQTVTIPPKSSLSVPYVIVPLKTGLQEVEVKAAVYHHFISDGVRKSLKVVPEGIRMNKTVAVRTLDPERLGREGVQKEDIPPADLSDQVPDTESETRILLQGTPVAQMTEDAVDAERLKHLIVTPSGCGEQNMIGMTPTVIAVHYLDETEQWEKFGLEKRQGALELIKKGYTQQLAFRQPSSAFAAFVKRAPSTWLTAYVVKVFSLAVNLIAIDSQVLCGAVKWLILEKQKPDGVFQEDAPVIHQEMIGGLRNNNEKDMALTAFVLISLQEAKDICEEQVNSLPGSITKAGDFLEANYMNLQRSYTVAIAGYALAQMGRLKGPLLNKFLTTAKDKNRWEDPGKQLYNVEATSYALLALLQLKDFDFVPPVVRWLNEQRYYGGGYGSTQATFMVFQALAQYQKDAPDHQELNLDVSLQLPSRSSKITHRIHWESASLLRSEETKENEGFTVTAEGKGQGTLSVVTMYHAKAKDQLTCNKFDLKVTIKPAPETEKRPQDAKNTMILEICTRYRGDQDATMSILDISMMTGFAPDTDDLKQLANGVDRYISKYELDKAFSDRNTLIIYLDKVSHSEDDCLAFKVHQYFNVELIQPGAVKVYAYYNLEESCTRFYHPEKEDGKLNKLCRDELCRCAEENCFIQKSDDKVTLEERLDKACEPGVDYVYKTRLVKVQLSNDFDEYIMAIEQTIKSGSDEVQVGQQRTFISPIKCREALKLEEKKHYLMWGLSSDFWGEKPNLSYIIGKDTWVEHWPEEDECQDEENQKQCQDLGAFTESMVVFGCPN
T1 sequence (P01024 23-667): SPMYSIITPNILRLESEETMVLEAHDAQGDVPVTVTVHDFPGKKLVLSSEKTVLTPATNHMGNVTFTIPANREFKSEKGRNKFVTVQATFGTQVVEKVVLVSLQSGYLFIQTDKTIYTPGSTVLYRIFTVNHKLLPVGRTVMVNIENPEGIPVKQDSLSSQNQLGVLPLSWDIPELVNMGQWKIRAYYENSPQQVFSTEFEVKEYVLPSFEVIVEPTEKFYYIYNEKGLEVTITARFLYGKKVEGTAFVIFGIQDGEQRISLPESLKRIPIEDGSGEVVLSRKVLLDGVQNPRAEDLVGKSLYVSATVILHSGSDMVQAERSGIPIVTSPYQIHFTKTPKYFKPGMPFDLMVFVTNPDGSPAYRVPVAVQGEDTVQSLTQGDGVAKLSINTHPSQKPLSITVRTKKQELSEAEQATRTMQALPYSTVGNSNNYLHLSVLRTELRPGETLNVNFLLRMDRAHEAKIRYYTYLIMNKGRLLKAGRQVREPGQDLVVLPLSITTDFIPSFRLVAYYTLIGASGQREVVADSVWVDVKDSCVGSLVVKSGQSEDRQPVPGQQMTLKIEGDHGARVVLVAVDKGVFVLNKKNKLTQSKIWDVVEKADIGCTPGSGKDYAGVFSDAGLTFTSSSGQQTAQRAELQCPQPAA

Row | SMILES | Average Fluorescence Intensity Density (JAK1/JAK2) | Average Fluorescence Intensity Density [1] | % Increase in Fluorescence (complement C3 [2]) [%] | Average Fluorescence Intensity Density (complement C3 [2]) | increase of fluorescent signal compared to control cells (complement C3 [2]) [%] | Average Fluorescence Intensity Density (complement C3 [3]) | increase of fluorescence intensity vs serum only control (complement C3 [3]) [%] | increase of fluorescence intensity (partial reversal of complement-mediated suppression of virus spreading) [4] [%] | Average Fluorescence Intensity Density ([4]; 48 h)
1 | N#CC[C@H](C1CCCC1)n1cc(-c2ncnc3[nH]ccc23)cn1 [Ruxolitinib] | 0.074 and 0.0755 and 0.0735 | 3.8 and 6.0 | – | – | – | – | – | – | –
2 | CC[C@H](C)[C@H](N)C(=O)N[C@H]1CSSC[C@@H](C(=O)N[C@H](C(N)=O)[C@@H](C)O)NC(=O)[C@H](CCCN=C(N)N)NC(=O)[C@H](Cc2cnc[nH]2)NC(=O)[C@H](Cc2cnc[nH]2)NC(=O)CNC(=O)[C@H](Cc2c[nH]c3ccccc23)NC(=O)[C@H](CC(=O)O)NC(=O)[C@H](CCC(N)=O)NC(=O)[C@H](C(C)C)NC(=O)[C@H](C(C)C)NC1=O [compstatin] | – | – | 50 | 0.09 | 50 | 0.0945 and 0.0670 and 0.0920 | 27.7 | 28.5 | 36.4
